The values that follow come from patent US5399587A, “Biologically active compounds” (priority 1993, dated 1995).

Series [1] has as its target T1, bovine aortic sarcolemma membrane vesicles ([^125 I]ChTX binding) (Bos taurus, UniProt Q28204).
T1 construct: bovine aortic sarcolemma membrane vesicles; from tissue; host or cells: bovine aorta (smooth muscle) sarcolemma membrane vesicles
Put plainly: [^125 I]ChTX (Charybdotoxin) binding to bovine aortic sarcolemma membrane vesicles. How it is done:
The interaction of [^125 I]ChTX (Charybdotoxin) with bovine aortic sarcolemma membrane vesicles was determined under conditions as described in Vazquez et al., 1989, J. Biol. Chem. 264, 20902-20909. Briefly, sarcolemma membrane vesicles were incubated in 12×75 polystyrene robes with ca. 25 pM [^125 I]ChTX (2200 Ci/mmol), in the absence or presence of test compound, in a media consisting of 20 mM NaCl, 20 mM Tris-HCl pH 7.4, 0.1% bovine serum albumin, 0.1% digitonin. Nonspecific binding was determined in the presence of 10 nM ChTX. Incubations were carried out at room temperature until ligand binding equilibrium is achieved at ca. 90 min. At the end of the incubation period, samples were diluted with 4 mL ice-cold 100 mM NaCl, 20 mM Hepes-Tris pH 7.4 and filtered through GF/C glass fiber filters that have been presoaked in 0.5% polyethylenimine. Filters were rinsed twice with 4 mL ice-cold quench solution. Radioactivity associated with filters was determined in a gamma counter. Specific binding data in the presence of each compound (difference between total binding and nonspecific binding) was assessed relative to an untreated control.

Series [2] deals with large-conductance calcium-activated potassium (maxi-K) channels (Bos taurus, UniProt Q28204). Put plainly: Patch clamp recordings of maxi-K channel currents in excised inside-out membrane patches from cultured bovine aortic smooth muscle cells. Format: biochemical. As to conditions: 10 μM. How it is done: Pipettes were typically filled with solutions containing (mM): 150 KCl, 10 Hepes (4-(2-hydroxyethyl)-1-piperazineethanesulfonic acid), 1 Mg, 0.01 Ca, and adjusted to pH 7.20 with 3.7 mM KOH. After forming a high resistance (>10^9 ohms) seal between the sarcolemmal membrane and the pipette, the pipette was withdrawn from the cell forming an excised inside-out membrane patch. […] An Axopatch 1C amplifier (Axon Instruments, Foster City, Calif.) with a CV-4 headstage was used to control the voltage and to measure the currents flowing across the membrane patch. The input to the headstage was connected to the pipette solution with a Ag/AgCl wire, and the amplifier ground was connected to the bath solution with a Ag/AgCl wire covered with a robe filled with agar dissolved in 0.2M KCl. Maxi-K channels were identified by their large single channel conductance (~250 pS) and sensitivity of channel open probability to membrane potential and intracellular calcium concentration.
Data was stored on a RACAL STORE 4DS FM tape recorder (Racal Recorders, Vienna, Va.) or on digital video tape using a video casette recorder after digitizing the signal with VR-10 (Instrutech Corp., Belmont N.Y.) PCM video encoder. The signal was also recorded on chart paper with a GOULD 2400S chart recorder (Gould Inc., Cleveland Ohio). For quantitative analysis, the data was played into a DEC 11-73 (Digital Equipment Corp., Maynard, Mass.) after digitization with a DT2782-8D1A analogue to digital converter (Data Translation Inc., Marlboro, Mass.), or played into a MAC IIx or QUADRA 700 computer (Apple Computers) after digitization with an ITC-16 interface (Instrutech Corp., Belmont, N.Y.).

The next series relates to maxi-K channels. Put plainly: Maxi-K channel recordings in planar lipid bilayers with plasma membrane vesicles from bovine aortic smooth muscle. The format is biochemical. As to conditions: 10 μM, lipid bilayer. As for the experimental part: Planar lipid bilayers were formed from a solution of 1-palmitoyl-2-oleoylphosphatidylethanolamine (POPE) and 1-palmitoyloleoylphosphatidylcholine (POPC) in a 7/3 molar ratio dissolved in decane (50 mg/mL). This lipid solution was painted across a small hole (250 micron) separating two aqueous compartments and readily formed bilayers with capacitances of 200-250 pF. The solution on the side that the membranes were added (cis) contained (mM): 150 KCl, 10 Hepes, 0.01 Ca, 3.7 KOH, pH 7.20. The solution on the other side (trans) contained (mM): 25 KCl, 10 HEPES, 0.01 Ca, 3.7 KOH, pH 7.20. Plasma membrane vesicles purified from bovine aortic smooth muscle (Slaughter et al. 1989, Biochemistry 28, 3995-4002) were added to the cis side until channel incorporation occurred. After channel incorporation, the concentration of KCl on the trans side was increased to 150 mM to prevent further channel incorporation. The orientation of maxi-K channels after insertion into the bilayer was determined from the calcium and voltage sensitivity of the channel. […]
Data was stored on a RACAL STORE 4DS FM tape recorder (Racal Recorders, Vienna, Va.) or on digital video tape using a video casette recorder after digitizing the signal with VR-10 (Instrutech Corp., Belmont N.Y.) PCM video encoder. The signal was also recorded on chart paper with a GOULD 2400S chart recorder (Gould Inc., Cleveland Ohio). […]

The mark [3] stands for this setting: excised inside-out patch, result in words.
Where [4] appears, read: application to the intracellular side, excised inside-out patch.

Where “and” joins values, the source holds several entries; their conditions need not be identical. Equal values may be shown once.

T1 sequence (Q28204 whole entry): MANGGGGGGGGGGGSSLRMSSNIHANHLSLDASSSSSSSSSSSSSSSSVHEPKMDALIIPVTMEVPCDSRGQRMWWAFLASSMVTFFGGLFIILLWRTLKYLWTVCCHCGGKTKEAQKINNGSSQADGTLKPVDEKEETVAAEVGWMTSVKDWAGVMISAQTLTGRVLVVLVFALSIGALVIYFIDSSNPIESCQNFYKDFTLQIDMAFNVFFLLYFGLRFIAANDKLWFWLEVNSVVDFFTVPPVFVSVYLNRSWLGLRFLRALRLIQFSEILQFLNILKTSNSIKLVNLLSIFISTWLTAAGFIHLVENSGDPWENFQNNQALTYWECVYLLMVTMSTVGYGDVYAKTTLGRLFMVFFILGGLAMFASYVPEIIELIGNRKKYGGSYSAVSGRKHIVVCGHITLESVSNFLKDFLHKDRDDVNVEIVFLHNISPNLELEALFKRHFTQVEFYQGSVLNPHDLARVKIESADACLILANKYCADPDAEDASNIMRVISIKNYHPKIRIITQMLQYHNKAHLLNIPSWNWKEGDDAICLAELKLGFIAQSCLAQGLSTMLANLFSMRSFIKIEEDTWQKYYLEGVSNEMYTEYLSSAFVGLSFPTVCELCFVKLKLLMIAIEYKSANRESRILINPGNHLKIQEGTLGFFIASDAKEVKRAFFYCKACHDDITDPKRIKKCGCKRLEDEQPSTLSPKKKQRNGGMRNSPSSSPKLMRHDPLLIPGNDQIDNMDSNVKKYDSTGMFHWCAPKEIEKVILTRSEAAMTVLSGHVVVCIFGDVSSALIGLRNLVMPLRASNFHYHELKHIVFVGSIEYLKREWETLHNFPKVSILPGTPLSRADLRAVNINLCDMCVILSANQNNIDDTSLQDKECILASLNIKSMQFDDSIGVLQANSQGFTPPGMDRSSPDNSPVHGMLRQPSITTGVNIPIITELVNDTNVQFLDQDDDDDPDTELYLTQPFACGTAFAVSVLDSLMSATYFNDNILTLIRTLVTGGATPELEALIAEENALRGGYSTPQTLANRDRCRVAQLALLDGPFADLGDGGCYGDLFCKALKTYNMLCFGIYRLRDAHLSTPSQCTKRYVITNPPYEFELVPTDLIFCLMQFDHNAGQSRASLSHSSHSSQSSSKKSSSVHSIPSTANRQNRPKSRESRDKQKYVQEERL
Sequence of large-conductance calcium-activated potassium (maxi-K) channels (Q28204 whole entry): as above
Sequence of large-conductance calcium-activated potassium (maxi-K) channels (Q28067 whole entry partner): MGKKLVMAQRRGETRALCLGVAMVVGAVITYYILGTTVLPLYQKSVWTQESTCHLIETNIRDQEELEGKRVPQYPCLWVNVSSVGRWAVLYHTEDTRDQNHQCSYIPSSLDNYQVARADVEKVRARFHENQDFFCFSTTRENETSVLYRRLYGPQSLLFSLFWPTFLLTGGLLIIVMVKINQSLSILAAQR

For the compound `CC1=CC[C@@]2(C)C[C@H](O)[C@@](O)(C(C)C)[C@@H]2CC1` [Compound B, reference compound], the half-maximal inhibitory concentration (IC50) in series [1] was 200 nM. The “inhibition of [^125 I]ChTX binding” value in series [1] (result in words) was “concentration-dependent inhibition”. Besides, in series [2] (setting [3]), the “effect on channel open probability” value was “no clear effect on channel open probability”.

As for `CCCCCCCC/C=C\CCCCCCCC(=O)OCC1=CC[C@@]2(C)C[C@H](O)[C@@](O)(C(C)C)[C@@H]2CC1` [Compound A], in series [1], the IC50 was 360 nM and ~360 nM. Besides, the “inhibition of [^125 I]ChTX binding” value in series [1] (result in words) is listed as “concentration-dependent inhibition”. In series [2] (excised inside-out patch), the “time over which increase in channel open probability developed” value fell in the range of 5 to 10 min. The “effect on channel open probability” value in series [2] (setting [3]) was “clear increases in channel open probability”; with maxi-K channels (outside face of the channel), “did not increase channel open probability”. In addition, in series [2] (long (20-60 minutes) washout), the “reversal of increase in channel open probability on washout” value was “slowly reversed after long (20-60 minutes) washout”. Moreover, the “increase in channel open probability” value in the series on maxi-K channels (inside face of the channel) is given as 1.4 fold.

As to `CCCCC/C=C\C/C=C\CCCCCCCC(=O)O[C@H]1C[C@]2(C)CC=C(C)CC[C@H]2[C@]1(O)C(C)C` [Compound C], in series [1] (concentrations up to 100 μM, tested at 1, 10 and 100 μM), the “effect on [^125 I]ChTX binding” value is “no effect on binding”. Moreover, the “effect on channel open probability” value in series [2] (setting [4]) is reported as “small decreases in channel open probability”.

With `CC(C)[C@@]1(O)[C@@H]2CCC(CO)=CC[C@@]2(C)C[C@@H]1O` [Compound E], in series [1] (concentrations from 1 nM to 100 μM), the “effect on toxin binding” value is reported as “did not produce any significant effect on toxin binding”. The “effect on channel open probability” value in series [2] (setting [4]) is listed as “no observable effect on channel open probability”.

Consider `CCCCCCCC/C=C\CCCCCCCC(=O)O[C@H]1C[C@]2(C)CC=C(C)CC[C@H]2[C@]1(O)C(C)C` [Compound D], for which the remaining activity at 100 µM in series [1] (1.5 h, pH 7.4, read-out: [^125 I]ChTX binding, % of that under control conditions) amounted to 37%. Moreover, the “inhibition of [^125 I]ChTX binding” value in series [1] (at 100 μM, tested at 1, 10 and 100 μM) was “significant inhibition of binding”. The “effect on channel open probability” value in series [2] (setting [4]) is given as “small decreases in channel open probability”.

As usually defined, the IC50 is the concentration at which inhibition is half-maximal. Low values mean inhibition by little substance, high ones a need for much substance.
